Where two headings read alike, the source gives them in different places.
Experiments:
[1] = system: LPS-induced microglia activation; assay: Image-based assay of LPS-induced microglia activation (HTS and dose response); format: cell-based, rat; conditions: for inhibition at 10 µM: Rattus norvegicus, Microglia, read-out: LPS % inhibition
[2] = system: fibrin-induced microglia activation; assay: Image-based assay of fibrin-induced microglia activation (HTS and dose response); format: cell-based, rat; conditions: for inhibition at 10 µM: Rattus norvegicus, Microglia, read-out: Fibrin % inhibition
primary rat microglia [3] = assay: Cell toxicity (dead cells, size <150 μm2) in coated fibrin (cFib) assay;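 also: share of dead cells sized under 150 µm2 at 10 µM in fibrin-stimulated microglia HTS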
[4] = system: fibrin- and LPS-induced microglia activation; assay: cells; format: cell-based, rat
primary rat microglia [5] = assay: Cell toxicity (dead cells, size <150 μm2) in LPS assay
[6] = primary microglia HTS, 10 μM, LPS-stimulated, cell size >800 μm^2 as marker of activation
[7] = primary microglia HTS, 10 μM, fibrin-stimulated, cell size >800 μm^2 as marker of activation
[8] = primary microglia HTS, 10 μM, fibrin assay, cell size <150 μm^2 as marker of toxicity
[9] = HTS of 1907 compounds, quadrant by fibrin and LPS inhibition
[10] = primary microglia HTS, 10 μM, LPS assay, cell size <150 μm^2 as marker of toxicity
[11] = 48 h, primary microglia HTS, LPS stimulation, activation = cell size >800 μm2
[12] = primary microglia HTS, fibrin stimulation, activation = cell size >800 μm2
[13] = primary microglia HTS, fibrin stimulation, toxicity = cell size <150 μm2
[14] = quadrant by fibrin and LPS inhibition in HTS of 1907 compounds
[15] = primary microglia HTS, LPS stimulation, toxicity = cell size <150 μm2
[16] = 48 h, primary microglia HTS, LPS stimulation, increased cell size (>800 μm^2) as marker of activation
[17] = primary microglia HTS, fibrin stimulation, increased cell size (>800 μm^2) as marker of activation
[18] = primary microglia HTS, fibrin stimulation, decreased size (<150 μm^2) as marker of toxicity
[19] = primary microglia HTS, LPS stimulation, decreased size (<150 μm^2) as marker of toxicity

Compound | Fibrin % cell toxicity (primary rat microglia [3]; [8]) [%] | Quadrant (FIG. 5b) [4, 9] | LPS % cell toxicity (primary rat microglia [5]; [10]) [%] | inhibition at 10 µM [1, 11] [%] | inhibition at 10 µM [2, 12] [%] | Fibrin % cell toxicity (primary rat microglia [3]; [13]) [%] | Quadrant (FIG. 5b) [4, 14] | LPS % cell toxicity (primary rat microglia [5]; [15]) [%] | further results
Cc1cc2nc3ccc(N(C)C)cc3[s+]c2cc1N [Tolonium Chloride] | 1 | Q4 | 1 | – | – | – | – | – | inhibition at 10 µM [1, 6]: 43%; inhibition at 10 µM [2, 7]: -4%
Cc1ccc(C)c(OCCCC(C)(C)C(=O)O)c1 [Gemfibrozil] | – | – | – | 10 | -47 | 0 | Q4 | 0 | –
NS(=O)(=O)c1cc2c(cc1Cl)NCNS2(=O)=O [Hydrochlorothiazide] | – | – | – | 21 | -29 | 0 | Q4 | 0 | –
C=C1c2cccc(O)c2C(=O)C2=C(O)[C@]3(O)C(=O)C(C(N)=O)=C(O)[C@@H](N(C)C)[C@@H]3[C@@H](O)[C@H]12 [Methacycline] | – | – | – | – | – | – | Q4 | – | inhibition at 10 µM [1, 16]: 11%; inhibition at 10 µM [2, 17]: -10%; Fibrin % cell toxicity (primary rat microglia [3]; [18]): 0%; LPS % cell toxicity (primary rat microglia [5]; [19]): 0%
CC(C)OC(=O)CCC/C=C\C[C@@H]1[C@@H](CC[C@@H](O)CCc2ccccc2)[C@H](O)C[C@@H]1O [Latanoprost] | – | – | – | 4 | 10 | 1 | Q4 | 0 | –
NC(=O)N/N=C/c1ccc([N+](=O)[O-])o1 [Nitrofural] | – | – | – | – | – | – | Q4 | – | inhibition at 10 µM [1, 16]: 1%; inhibition at 10 µM [2, 17]: -14%; Fibrin % cell toxicity (primary rat microglia [3]; [18]): 0%; LPS % cell toxicity (primary rat microglia [5]; [19]): 0%
CC(N)Cc1ccc(O)cc1 (stereo not drawn) [Hydroxyamphetamine] | – | – | – | -2 | -12 | 1 | Q4 | 0 | –
CCN(C(C)=O)c1cccc(-c2ccnc3c(C#N)cnn23)c1 [Zaleplon] | 1 | Q4 | 0 | – | – | – | – | – | inhibition at 10 µM [1, 6]: 13%; inhibition at 10 µM [2, 7]: 16%
CN(C(=O)CN(CCO)CC(=O)N(C)C(C)(C)Cc1ccccc1)C(C)(C)Cc1ccccc1 [Oxethazaine] | – | – | – | – | – | – | Q4 | – | inhibition at 10 µM [1, 16]: 42%; inhibition at 10 µM [2, 17]: 25%; Fibrin % cell toxicity (primary rat microglia [3]; [18]): 1%; LPS % cell toxicity (primary rat microglia [5]; [19]): 0%
C=CCC1(C(C)CCC)C(=O)N=C(S)NC1=O (stereo not drawn) [Thiamylal] | 0 | Q4 | 0 | – | – | – | – | – | inhibition at 10 µM [1, 6]: 26%; inhibition at 10 µM [2, 7]: -1%
CC1(C)OC(=O)C(OCC2CC2)=C1c1ccc(S(C)(=O)=O)cc1 [Firocoxib] | – | – | – | 11 | -10 | 1 | Q4 | 1 | –
Cc1cccc(Nc2ccncc2S(=O)(=O)NC(=O)NC(C)C)c1 [Torasemide] | 1 | Q4 | 0 | – | – | – | – | – | inhibition at 10 µM [1, 6]: 7%; inhibition at 10 µM [2, 7]: -29%
C[C@@H]1CN(c2c(F)c(F)c3c(=O)c(C(=O)O)cn(C4CC4)c3c2F)C[C@H](C)N1 [Orbifloxacin] | – | – | – | – | – | – | Q4 | – | inhibition at 10 µM [1, 16]: 15%; inhibition at 10 µM [2, 17]: -18%; Fibrin % cell toxicity (primary rat microglia [3]; [18]): 0%; LPS % cell toxicity (primary rat microglia [5]; [19]): 0%
CC(C)(C)NC[C@H](O)COc1nsnc1N1CCOCC1 [Timolol] | 1 | Q4 | 0 | – | – | – | – | – | LPS % inhibition [1, 6]: −7%; Fibrin % inhibition [2, 7]: 11%
COc1ccc(O)c(C(C)(C)C)c1 [Butylated Hydroxyanisole] | – | – | – | – | – | – | – | – | LPS % inhibition ([1]; primary HTS, 10 μM, LPS-stimulated primary microglia): 26%; Fibrin % inhibition ([2]; primary HTS, 10 μM, fibrin-stimulated primary microglia): −17%; Fibrin % cell toxicity (primary rat microglia [3]; primary HTS, 10 μM, fibrin assay, dead cells size <150 μm2): 1%; Quadrant (FIG. 5b) ([4]; primary HTS, 10 μM): Q4; LPS % cell toxicity (primary rat microglia [5]; primary HTS, 10 μM, LPS assay, dead cells size <150 μm2): 0%

Reference: patent publication US20210330611A1, “THERAPY FOR NEUROLOGICAL DISEASES/DISORDERS” (priority 2020, published 2021)
